Results on three compounds are retold here after patent US10561676B2, “Method for treating cancer using dual antagonists of CXCR1 and CXCR2” (Syntrix Biosystems, Inc., priority 2018, dated 2020).

For one data set, the system named is Sprague-Dawley rats. Nature of the data set: Ozone rat model of pulmonary inflammation (neutrophil influx into BALF). Format: in vivo. Conditions: 1 mg/kg i.v. once, 1 ppm ozone 4 hours, BALF at 24 hours. How it is done:
SX-682 was assayed in an in vivo rat model of pulmonary inflammation. Activity in this model of pulmonary inflammation provides evidence that supports the use of SX-682 in the treatment of a number of pulmonary inflammatory diseases, including chronic obstructive pulmonary disease (COPD) and bronchopulmonary dysplasia (BPD). In this experiment, Sprague-Dawley rats (n=4 per cohort) were dosed intravenously only once at t=0 with either vehicle control (dimethylformamide/PEG400/saline, 40:40:20), positive inhibitor control (SX-576, 1 mg/kg) or the test compound (SX-682, 1 mg/kg). The rats were then placed in air (negative exposure group; vehicle control only) or 1 ppm ozone (positive exposure group; vehicle control, positive inhibitor control SX-576, and test compound SX-682) for 4 hours. The rats were then sacrificed at t=24 hours, and the bronchoalveolar lavage fluid (BALF) was collected. The cells were spun down, stained with Wright-Giemsa and counted. In the negative exposure group, no neutrophils were observed when stained. In the ozone exposed rats treated with vehicle however, there was a brisk influx of neutrophils of approximately 14,000 per mL of BALF (FIG. 5).

Data set [1] is described as follows: Stability in human plasma. Type of data set: in vitro ADME. Conditions: for t½: 5 μM, 37° C., LC-MS/MS detection. How it is done: The in vitro stability of SX-682 and the congeners of Metabolic Stability Example 1 (FIG. 6) were further studied in human plasma. The reactions were initiated by the addition of 5 μl of a 500 μM DMSO stock solution to 495 μl of preheated plasma solution to yield a final concentration of 5 μM. The assays were performed in a heat block at 37° C. and conducted in duplicate. Samples (50 μl) were taken at 0, 30, 60, 120, 240 min and added to 150 μL acetonitrile in order to deproteinize the plasma. The samples were subjected to vortex mixing for 1 min and then centrifugation for 15 min at 14,000 rpm. The clear supernatants were analyzed by LC-MS.
The in vitro plasma half-life (t½) was calculated using the expression t½=ln(2)/b where b is the slope found in the linear fit of the natural logarithm of the fraction remaining of the parent compound vs. incubation time.

The subject of another data set is neutrophils. The data set can be described thus: Murine air-pouch model of inflammation. Format: in vivo. Conditions: depending on the dose given.
Data set [2] can be described thus: Stability in human liver microsomes (NADPH-dependent). Format: in vitro ADME. To be noted: 37° C., NADPH-dependent. How it is done: The compounds were incubated in duplicate with human liver microsomes at 37° C. The reaction contained microsomal protein in 100 mM potassium phosphate, 2 mM NADPH, 3 mM MgCl2, pH 7.4. A control was run for each compound omitting NADPH to detect NADPH-independent degradation. An aliquot was removed from each experimental and control reaction at 0, 10, 20, 30, and 60 minutes and mixed with an equal volume of ice-cold Stop Solution (0.3% acetic acid in acetonitrile containing haloperidol, diclofenac, or other internal standard). Stopped reactions were incubated for at least ten minutes at −20° C., and an additional volume of water was added. The samples were centrifuged to remove precipitated protein, and the supernatants were analyzed by LCMS/MS to quantitate the remaining compound. Data were converted to percent remaining by dividing by the time zero concentration value. Data were fit to a first-order decay model to determine half-life. Intrinsic clearance was calculated from the half-life and the protein concentrations: CLint=ln(2)/(t½[microsomal protein]). […] More surprising is that eliminating the ring nitrogen in SX-517 yielded a half-life even larger than that of SX-682. The results as a whole led to no SAR predictive of the surprising stability of SX-682.
(In general: Liver microsomes are vesicles of endoplasmic reticulum, rich in cytochrome P450 enzymes.)

Data set [3] has as its system C3Tag mouse model of breast cancer. Nature of the data set: C3Tag mouse model of breast cancer. Format: in vivo. Conditions: SX-682 10 mg/day/mouse oral; carboplatin 50 mg/kg weekly i.p.; vehicle 18 days. The source says:
The C31-T-antigen (C3Tag) mouse model is a validated model of human triple-negative basal cell breast cancer as shown by gene expression analysis (Maroulakou, 1994, Proc Natl Acad Sci, 91:11236-40, herein incorporated by reference). The expressed large T-antigen binds and inactivates the RB and p53 tumor suppressor genes, explaining why this model faithfully recapitulates human basal breast cancer, which also harbors RB and p53 inactivation. This model also has frequent K-Ras amplification and infrequent Ras mutations. Treatment regimens were started following tumor manifestation. SX-682 was given orally via medicated feed, at an approximate dose of 10 mg/day/mouse. CP was administered once weekly via intraperitoneal injection at a dose of 50 mg/kg.

In the case of `O=C(Nc1ccc(F)cc1)c1ccc(SCc2cc(OC(F)(F)F)ccc2B(O)O)nc1` [SX-576], the “influx of neutrophils into the lungs (BALF) vs vehicle” value in the data set with Sprague-Dawley rats is “significantly decreased the influx of neutrophils”. Besides, the t½ in data set [1] was determined as 533 min. Also, the activity on neutrophils entry in the data set with neutrophils was “both inhibitory and agonist activity on neutrophils were achieved”. Besides, in data set [2], the “t½, half-life” value stood at 50 min.
In the case of `N.N.O=C([O-])C1(C(=O)[O-])CCC1.[Pt+2]` [carboplatin, reference compound], the “median survival, single agent” value in data set [3] worked out at 28 days.
`O=C(Nc1ccc(F)cc1)c1ccc(SCc2ccccc2B(O)O)nc1` [SX-517] had a t½ in data set [1] of 113 min. For the same compound, in data set [1] (relative to SX-682/SX-576), the “reduction in plasma half-life” value worked out at 5 fold. The activity on neutrophils result with neutrophils was “both inhibitory and agonist activity on neutrophils were achieved”. For the same compound, the “t½, half-life” value in data set [2] amounted to 405 min.

By t½ is commonly meant how long it takes for the measured level to halve. Lower therefore signals rapid decline.
